The record followed here is PMC6017357, “In Vitro Inhibitory Effects of Synthetic Cannabinoid EAM-2201 on Cytochrome P450 and UDP-Glucuronosyltransferase Enzyme Activities in Human Liver Microsomes” (Molecules : A Journal of Synthetic Chemistry and Natural …, 2018).

As usually defined, the IC50 is the concentration needed to halve the response being measured. A word on the kinact: it is the rate constant of inactivation at saturating inhibitor.

Common to all, as to assay type: in vitro ADME
What all share (set-up): from tissue; host or cells: ultrapooled human liver microsomes
Background: Microsomes from liver hold many membrane-bound enzymes, among them those of drug oxidation.

One data set concerns the target T1, CYP2C8 (Homo sapiens, UniProt P10632).
T1 sequence (P10632 1-490): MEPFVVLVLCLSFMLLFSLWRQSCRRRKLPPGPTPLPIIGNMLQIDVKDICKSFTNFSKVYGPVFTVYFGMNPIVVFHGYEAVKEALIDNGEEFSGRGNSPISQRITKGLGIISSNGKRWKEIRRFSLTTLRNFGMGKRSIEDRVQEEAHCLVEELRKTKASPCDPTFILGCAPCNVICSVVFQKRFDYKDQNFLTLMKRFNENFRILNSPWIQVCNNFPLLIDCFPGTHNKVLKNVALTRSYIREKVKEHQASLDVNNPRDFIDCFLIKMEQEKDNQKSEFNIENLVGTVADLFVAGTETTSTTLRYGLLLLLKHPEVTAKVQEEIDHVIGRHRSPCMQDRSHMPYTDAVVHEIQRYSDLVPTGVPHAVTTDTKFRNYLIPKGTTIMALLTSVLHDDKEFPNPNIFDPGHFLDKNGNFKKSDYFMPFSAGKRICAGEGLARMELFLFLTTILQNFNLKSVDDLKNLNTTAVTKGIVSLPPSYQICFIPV
Briefly: CYP2C8-catalyzed amodiaquine N-deethylation in human liver microsomes (IC50 and time-dependent inhibition). The procedure:
(§1) The inhibitory potential (IC50 values) of EAM-2201 on CYP1A2, CYP2A6, CYP2C8, CYP2C9, CYP2C19, CYP2D6 and CYP3A4 were evaluated using ultrapooled human liver microsomes and a cocktail of seven CYP substrates followed by LC-tandem mass spectrometry (LC-MS/MS) as previously described. Each incubation mixture was prepared in a total volume of 100 µL as follows: pooled human liver microsomes (5.2 pmol CYP), 1.0 mM NADPH, 10 mM magnesium chloride, 50 mM potassium phosphate buffer (pH 7.4), various concentrations of EAM-2201 in DMSO (final concentrations of 0.1–50 µM, 0.5% DMSO) and a cocktail of seven CYP probe substrates in 50% acetonitrile (0.5% acetonitrile), including 50 µM phenacetin, 2.5 µM coumarin, 2.0 µM amodiaquine, 10 µM diclofenac, 100 µM [S]-mephenytoin, 5 µM bufuralol and 2.5 µM midazolam in 50% acetonitrile. After a 3-min preincubation at 37 °C, the reactions were initiated by adding NADPH and incubation proceeded for 15 min at 37 °C in a shaking water bath. The reactions were stopped by adding 100 µL of ice-cold methanol containing internal standards (^13C2,^15N-acetaminophen for acetaminophen and N-desethylamodiaquine; d9-1′-hydroxybufuralol for 4′-hydroxydiclofenac, 7-hydroxycoumarin, 4′-hydroxymephenytoin, 1′-hydroxybufuralol and 1′-hydroxy-midazolam). The incubation mixtures were centrifuged at 13,000× g for 4 min at 4 °C and 50 µL of each supernatant was diluted in 50 µL of water. Aliquots (5 µL) of the diluted supernatants were analyzed using LC-MS/MS. All assays were performed in triplicate and the mean values were used in calculations. […] Each reaction was initiated by adding the seven-CYP probe substrate cocktail described above.
(§2) The time-dependent inhibitory effects of EAM-2201 on CYP2C8, CYP2C9, CYP2C19 and CYP3A4 activities in ultrapooled human liver microsomes were evaluated using time- and concentration-dependent inhibition assays. Ultrapooled human liver microsomes (26.0 pmol CYP) were pre-incubated with various concentrations of EAM-2201 in DMSO (0.5% DMSO) in 50 mM potassium phosphate buffer (pH 7.4) in the presence of NADPH for predetermined time periods: 5–15 min for CYP2C8 activity, 5–20 min for CYP2C9 activity and 15–40 min for CYP2C19 and CYP3A4 activities. […] Aliquots (5 µL) of the diluted supernatants were analyzed using LC-MS/MS.
(§3) The metabolites formed from CYP substrates were simultaneously quantified using our previously described LC-MS/MS method. […]

Another data set addresses CYP2C19 (Homo sapiens, UniProt P33261). Briefly: CYP2C19-mediated [S]-mephenytoin 4′-hydroxylation in human liver microsomes (IC50 and time-dependent inhibition). How it is done:
as §1, §2, §3

In the next data set the target is CYP3A4 (Homo sapiens, UniProt P08684). Briefly: CYP3A4-mediated midazolam 1′-hydroxylation in human liver microsomes (IC50 and time-dependent inhibition). How it is done:
as §1, §2, §3

The mark [1] stands for this setting: up to 50 µM, without 30-min preincubation, human liver microsomes.

Chain of CYP2C19 (P33261 whole entry): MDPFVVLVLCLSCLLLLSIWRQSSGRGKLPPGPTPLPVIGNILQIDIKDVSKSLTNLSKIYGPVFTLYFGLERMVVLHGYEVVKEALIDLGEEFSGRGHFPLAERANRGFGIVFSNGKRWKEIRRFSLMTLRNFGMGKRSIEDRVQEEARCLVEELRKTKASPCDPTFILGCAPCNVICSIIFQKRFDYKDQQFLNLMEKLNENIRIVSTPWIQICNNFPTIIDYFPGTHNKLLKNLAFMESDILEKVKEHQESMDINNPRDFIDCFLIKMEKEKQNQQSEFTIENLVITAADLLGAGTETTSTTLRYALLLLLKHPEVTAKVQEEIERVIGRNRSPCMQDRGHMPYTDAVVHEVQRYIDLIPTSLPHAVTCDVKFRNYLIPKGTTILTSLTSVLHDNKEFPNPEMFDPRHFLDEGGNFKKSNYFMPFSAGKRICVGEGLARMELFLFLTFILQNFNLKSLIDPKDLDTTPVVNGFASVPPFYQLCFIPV
Chain of CYP3A4 (P08684 whole entry): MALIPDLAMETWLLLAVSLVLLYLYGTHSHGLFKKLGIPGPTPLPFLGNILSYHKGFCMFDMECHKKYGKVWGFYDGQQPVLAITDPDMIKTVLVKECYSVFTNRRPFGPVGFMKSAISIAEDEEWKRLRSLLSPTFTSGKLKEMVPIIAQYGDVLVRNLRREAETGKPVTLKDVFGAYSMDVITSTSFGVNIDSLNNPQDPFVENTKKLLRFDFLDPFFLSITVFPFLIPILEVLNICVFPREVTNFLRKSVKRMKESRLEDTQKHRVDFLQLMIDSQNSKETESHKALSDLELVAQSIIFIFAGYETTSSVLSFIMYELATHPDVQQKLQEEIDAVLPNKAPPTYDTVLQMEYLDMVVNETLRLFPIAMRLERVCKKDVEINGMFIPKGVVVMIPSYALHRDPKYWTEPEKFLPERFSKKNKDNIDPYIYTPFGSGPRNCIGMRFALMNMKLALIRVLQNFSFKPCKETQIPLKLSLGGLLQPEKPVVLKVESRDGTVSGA

With `CCc1ccc(C(=O)c2cn(CCCCCF)c3ccccc23)c2ccccc12` [EAM-2201, (4-ethyl-1-naphthalenyl)[1-(5-fluoropentyl)-1H-indol-3-yl]-methanone], the values for the IC50 against CYP2C8, at CYP2C19 and against CYP3A4 were 3 µM, 10.9 µM and 17.6 µM, respectively. At CYP2C8 (human liver microsomes), the “inactivation efficiency (kinact/Ki), CYP2C8” value came to 117.2 mL/µmol/min. The kinact is 0.00105 s⁻¹ on CYP2C8 (human, ultrapooled human liver microsomes, pH 7.4, probe amodiaquine (2 µM), N-deethylation, read-out: kinact, time-dependent inhibition of CYP2C8 amodiaquine N-deethylase (converted)); 0.00044 s⁻¹ at CYP2C19 (human, ultrapooled human liver microsomes, pH 7.4, probe [S]-mephenytoin (100 µM), 4′-hydroxylation, read-out: kinact, time-dependent inhibition of CYP2C19 [S]-mephenytoin 4′-hydroxylase (converted)); 0.000417 s⁻¹ on CYP3A4 (human, ultrapooled human liver microsomes, pH 7.4, probe midazolam (2 µM), 1′-hydroxylation, read-out: kinact, time-dependent inhibition of CYP3A4 midazolam 1′-hydroxylase (converted)). Moreover, on CYP2C8 (setting [1]), the “inhibition of CYP2C8-catalyzed amodiaquine N-deethylation” value is recorded as “negligibly inhibited”. Also, at CYP2C19 (human liver microsomes), the “inactivation efficiency (kinact/Ki), CYP2C19” value is listed as 6.9 mL/µmol/min. Besides, at CYP2C19 (setting [1]), the “inhibition of CYP2C19-mediated [S]-mephenytoin 4′-hydroxylation” value is “negligibly inhibited”. Moreover, on CYP3A4 (human liver microsomes), the “kinact/Ki value for CYP3A4” value was 6.1 mL/µmol/min. Also, the “inhibition of CYP3A4-mediated midazolam 1′-hydroxylation” value against CYP3A4 (setting [1]) was “negligibly inhibited”.
